Assay results as given in ChEMBL document CHEMBL3244247, “Beta-Adrenergic blocking agents. 15. 1-Substituted ureidophenoxy-3-amino-2-propanols” (1977).

Assays:
Felis catus [1] = experiment: In vivo inhibition of beta-1 adrenergic receptor in cat assessed as inhibition of isoproterenol-induced tachycardia administered as 30 mins of infusion measured at 30 mins by cardiotachometer; format: functional; conditions: 0.5 h
Felis catus [2] = experiment: In vivo inhibition of beta-2 adrenergic receptor in cat assessed as inhibition of isoproterenol-induced vasodepressor response at ED50 administered as 30 mins of infusion measured at 30 mins relative to control; format: functional

SMILES | ED50 (Felis catus [1]) [mg/kg] | inhibition (INH) (Felis catus [2]) [%]
CCCCCCNC(=O)Nc1ccc(OCC(O)CNC(C)(C)C)cc1 (centres undefined) | 0.094 | 30
C=CCc1cc(NC(=O)NC)ccc1OCC(O)CNC(C)(C)C (centres undefined) | 0.056 | 74
Cc1cc(NC(=O)NC(C)C)ccc1OCC(O)CNC(C)(C)C (centres undefined) | 0.049 | 5
CNC(=O)Nc1ccc(OCC(O)CNC(C)(C)C)c(Cl)c1 (centres undefined) | 0.025 | 52
CCNC(=O)Nc1ccc(OCC(O)CNC(C)C)c(Br)c1 (centres undefined) | 0.069 | 19
CCCCCCNC(=O)Nc1ccc(OCC(O)CNC(C)C)cc1 (centres undefined) | 0.274 | 0
CCNC(=O)Nc1ccc(OCC(O)CNC(C)C)c(OCC)c1 (centres undefined) | 0.295 | 41
CCCCCCCCNC(=O)Nc1ccc(OCC(O)CNC(C)C)c(C)c1 (centres undefined) | 0.169 | 28
CCNC(=O)Nc1ccc(OCC(O)CNC(C)(C)C)c(C)c1 (centres undefined) | 0.057 | 58
CCCCCCNC(=O)Nc1ccc(OCC(O)CNC(C)C)c(C(C)=O)c1 (centres undefined) | 0.182 | 0
CCNC(=O)Nc1ccc(OCC(O)CNC(C)(C)C)c(I)c1 (centres undefined) | 0.023 | 6
C=CCNC(=O)Nc1ccc(OCC(O)CNC(C)C)cc1 (centres undefined) | 0.262 | 70
CC(C)(C)NCC(O)COc1ccc(NC(=O)Nc2ccc(Cl)cc2)cc1 (centres undefined) | 0.403 | 39
Cc1cc(NC(=O)NC(C)C)ccc1OCC(O)CNC(C)C (centres undefined) | 0.438 | 57
CCNC(=O)Nc1ccc(OCC(O)CNC(C)(C)C)c(CC)c1 (centres undefined) | 0.08 | 2
C=CCNC(=O)Nc1ccc(OCC(O)CNC(C)(C)C)c(C)c1 (centres undefined) | 0.045 | 32
CNC(=O)Nc1ccc(OCC(O)CNC(C)(C)C)cc1 (centres undefined) | 0.074 | 0
CCCNC(=O)Nc1ccc(OCC(O)CNC(C)(C)C)cc1 (centres undefined) | 0.033 | 0
CCCCNC(=O)Nc1ccc(OCC(O)CNC(C)(C)C)c(C)c1 (centres undefined) | 0.012 | 11
C=CCNC(=O)Nc1ccc(OCC(O)CNC(C)(C)C)cc1 (centres undefined) | 0.089 | 6
CCNC(=O)Nc1ccc(OCC(O)CNC(C)COP)c(C)c1 (centres undefined) | 0.885 | 18

SMILES | ED50 (Felis catus [1]) [mg/kg] | inhibition (INH) (Felis catus [2]) [%]
CNC(=O)Nc1ccc(OCC(O)CNC(C)C)cc1 (centres undefined) | 0.07 | 29
CC(=O)Nc1ccc(OCC(O)CNC(C)C)cc1 (centres undefined) [PRACTOLOL] | 0.167 | 8
CCNC(=O)Nc1ccccc1OCC(O)CNC(C)C (centres undefined) | 3.24 | 103
CC(C)NC(=O)Nc1ccc(OCC(O)CNC(C)(C)C)cc1 (centres undefined) | 0.095 | 24
CCCCCCNC(=O)Nc1ccc(OCC(O)CNC(C)(C)C)c(C)c1 (centres undefined) | 0.03 | 50
CNC(=O)Nc1ccc(OCC(O)CNC(C)C)c(C)c1 (centres undefined) | 0.17 | 32
C=CCc1cc(NC(=O)NCC)ccc1OCC(O)CNC1CC1 (centres undefined) | 1.14 | 37
CCNC(=O)Nc1ccc(OCC(O)CNC(C)C)c(O)c1 (centres undefined) | 0.521 | 15
C=CCc1cc(NC(=O)NCC)ccc1OCC(O)CNC(C)C (centres undefined) | 0.18 | 68
CNC(=O)Nc1ccc(OCC(O)CNC(C)C)c(I)c1 (centres undefined) | 0.1 | 33
CC(C)(C)NCC(O)COc1ccc(NC(N)=O)cc1 (centres undefined) | 0.101 | 0
CCCCNC(=O)Nc1ccc(OCC(O)CNC(C)(C)C)c(Cl)c1 (centres undefined) | 0.008 | 0
CCNC(=O)Nc1ccc(OCC(O)CNC(C)C)c(CC)c1 (centres undefined) | 0.118 | 33
CCCNC(=O)Nc1ccc(OCC(O)CNC(C)C)c(C)c1 (centres undefined) | 0.061 | 59
CCCCNC(=O)Nc1ccc(OCC(O)CNC(C)C)c(C)c1 (centres undefined) | 0.046 | 0
CNC(=O)Nc1ccc(OCC(O)CNC(C)C)c(Cl)c1 (centres undefined) | 0.104 | 26
CCCCCCNC(=O)Nc1ccc(OCC(O)CNC(C)C)c(C)c1 (centres undefined) | 0.189 | 19
C=CCNC(=O)Nc1ccc(OCC(O)CNC(C)(C)C)c(Cl)c1 (centres undefined) | 0.022 | 19
CCNC(=O)Nc1ccc(OCC(O)CNC(C)C)cc1 (centres undefined) | 0.427 | 0
CCNC(=O)Nc1ccc(OCC(O)CNC(C)C)c(Cl)c1 (centres undefined) | 0.188 | 0
CC(C)NCC(O)COc1ccc(NC(N)=O)cc1 (centres undefined) | 0.631 | 20

SMILES | ED50 (Felis catus [1]) [mg/kg] | inhibition (INH) (Felis catus [2]) [%]
CCCc1cc(NC(=O)NC)ccc1OCC(O)CNC(C)(C)C (centres undefined) | 0.093 | 7
CCCCNC(=O)Nc1ccc(OCC(O)CNC(C)C)cc1 (centres undefined) | 0.416 | 0
CCNC(=O)Nc1ccc(OCC(O)CNC(C)(C)C)cc1 (centres undefined) | 0.201 | 34
CC(C)NCC(O)COc1cccc2ccccc12 (centres undefined) [PROPRANOLOL] | 0.062 | 85
C=CCc1cc(NC(=O)NCCC)ccc1OCC(O)CNC(C)C (centres undefined) | 0.213 | 15
CCCNC(=O)Nc1ccc(OCC(O)CNC(C)C)cc1 (centres undefined) | 0.147 | 0
CCCNC(=O)Nc1ccc(OCC(O)CNC(C)C)c(I)c1 (centres undefined) | 0.077 | 100
CC(C)NCC(O)COc1ccc(NC(=O)NC2CCCCC2)cc1Cl (centres undefined) | 0.252 | 14
C=CCNC(=O)Nc1ccc(OCC(O)CNC(C)C)c(Cl)c1 (centres undefined) | 0.131 | 43
CCCNC(=O)Nc1ccc(OCC(O)CNC(C)(C)C)c(C)c1 (centres undefined) | 0.044 | 0
CCCCNC(=O)Nc1ccc(OCC(O)CNC(C)(C)C)cc1 (centres undefined) | 0.048 | 0
CC(C)NCC(O)COc1cccc(NC(N)=O)c1 (centres undefined) | 0.028 | 58
CNC(=O)Nc1ccc(OCC(O)CNC(C)C)c(C(C)=O)c1 (centres undefined) | 0.395 | 43
CCNC(=O)Nc1ccc(OCC(O)CNC(C)C)c(C)c1 (centres undefined) | 0.234 | 27
C=CCc1cc(NC(=O)NCC)ccc1OCC(O)CNC(C)(C)C (centres undefined) | 0.038 | 30
CCNC(=O)Nc1ccc(OCC(O)CNC(C)C)c(SC)c1 (centres undefined) | 0.198 | 32
C=CCNC(=O)Nc1ccc(OCC(O)CNC(C)C)c(C)c1 (centres undefined) | 0.107 | 12
C=CCc1cc(NC(=O)NCC)ccc1OCC(O)CNC(C)(C)CO (centres undefined) | 0.224 | 50
CCCCCCCCNC(=O)Nc1ccc(OCC(O)CNC(C)(C)C)c(C)c1 (centres undefined) | 0.08 | 11
CNC(=O)Nc1ccc(OCC(O)CNC(C)C)c(Br)c1 (centres undefined) | 0.033 | 63
